In test [1] the test system is DMS273 cells constantly expressing Luc. In words: Target reporter protein (Luc) knockdown in cell, reporter protein assay. The following applies: Homo sapiens, DMS-273. It is filed as cell-based. How it is done: The nucleic acid lipid particles prepared by the same method as that in <Preparation of nucleic acid lipid particles> by using the compounds described in Table 3 were evaluated by reporter assay by the following method.
By using pGL4.50 Luc2 (E1310 Promega), DMS273 cells (human small cell lung cancer) (European Collection of Authenticated Cell Cultures) constantly expressing Luc were prepared. RPMI (Gibco) (10% FBS (Gibco), 1% Penicillin-Streptomycin (Gibco), and 200 μg/mL Hygromycin (Wako)) was used as a culture medium. DMS273 cells (2.0×10^3) constantly expressing luciferase (Luc) were seeded in a 96-well plate and cultured in a 5% CO2 incubator for 24 hours, and then the medium was replaced. Then, 10 μL of each of the dispersion liquids of lipid particles diluted with PBS (Gibco) to yield a concentration of 1 to 1,000 nmol/L was added to the 96-well plate, and the final concentration was adjusted to 0.1 to 100 nmol/L (total amount of liquid: 110 μl). Thereafter, the cells were cultured in a 5% CO2 incubator for 24 hours, the medium was then replaced, and the cells were further cultured for 24 hours.
After the viable cell count was determined, the expression amount of Luc was quantified using a Steady Glo assay kit (Promega), and the knockdown efficiency was calculated according to the following equation. Then, the IC50 concentration at which the expression amount of Luc was knocked down to 50% was calculated.

Test [2] concerns Factor VII (FVII) protein. In words: Measurement of Factor VII (FVII) protein in mouse plasma after FVII-siRNA lipid particles. To be noted: 0.1 mg/kg caudal vein, plasma 24 hours after administration, PBS group = 100%. In kind it is in vivo, C57BL6/J mice. How it is done:
The Factor VII (FVII) protein was measured according to the method described in Nature Biotechnology (2010) 28, 172-176. C57BL6/J mice were randomly grouped (n=3). A dispersion liquid of nucleic acid lipid particles was prepared by the same method as that in <Preparation of nucleic acid lipid particles>, except that FVII-siRNA having the sequence described in Molecular Therapy (2009) 17, p. 878 was used instead of Luc-siRNA. The dispersion liquid was administered to the caudal vein of the mice at a dosage of 0.1 mg/kg. For comparison, PBS at the same volume was administered to the caudal vein of the mice. Twenty four hours after the administration, blood was collected from the caudal vena cava, thereby obtaining plasma. The amount of FVII protein was quantified using the obtained plasma and a Biophen FVII assay kit (Aniara).
The FVII amount in the plasma sample of each individual in the PBS administration group was regarded as 100%, and the ratio of the FVII amount in the plasma sample of each individual to 100% was adopted as a measurement value.

The mark [3] stands for this setting: Luc2-siRNA lipid particles using the compound, siRNA 0.1 to 100 nmol/L, concentration at which Luc expression is knocked down to 50%, read-out: IC50.

Read-outs that look alike come from different tables or passages of the source.

As a reminder, the IC50 is the point on the concentration scale where inhibition reaches its midpoint. In the case of `CCCCCCCCC(CCCCCCCC)C(=O)OCCCCCCC(CCCCCCOC(=O)C(CCCCCCCC)CCCCCCCC)OC(=O)OCCN(CC)CCN(CC)CC` [Example 74, 7-(((2-((2-(Diethylamino)ethyl)(ethyl)amino)ethoxy)carbonyl)oxy)tridecane-1,13-diylbis(2-octyldecanoate)], inhibition in test [1] was half-maximal at 22 nM (IC50). Besides, the “Relative amount of FVII protein (%)” value in test [2] is recorded as 4%.

In the case of `CCCCCCCCC(CCCCCC)C(=O)OCCCCC(CCCCOC(=O)C(CCCCCC)CCCCCCCC)OC(=O)OCCN(CC)CCN(CC)CC` (stereo not shown) [Example 73, 5-(((2-((2-(Diethylamino)ethyl)(ethyl)amino)ethoxy)carbonyl)oxy)nonane-1,9-diylbis(2-hexyldecanoate)], in test [1], the half-inhibitory concentration (IC50) amounted to 24 nM. Also, the “Relative amount of FVII protein (%)” value in test [2] is listed as 1%.

Consider `CCCCCCC(CCCCCC)CC(=O)OCCCCCCC(CCCCCCOC(=O)CC(CCCCCC)CCCCCC)OC(=O)OCCN(CC)CCN(CC)CC` [Example 67, 7-(((2-((2-(Diethylamino)ethyl)(ethyl)amino)ethoxy)carbonyl)oxy)tridecane-1,13-diylbis(3-hexylnonanoate)], for which, in test [1] (setting [3]), the concentration for half-maximal inhibition (IC50) was determined as 22 nM. Moreover, the “Relative amount of FVII protein (%)” value in test [2] came out at 5%.

As to `CCCCCCCC/C=C\CCCCCCCC(=O)OCCCCCCC(CCCCCCOC(=O)CCCCCCC/C=C\CCCCCCCC)OC(=O)OCCN(CC)CCN(CC)CC` [Example 41, 7-(((2-((2-(diethylamino)ethyl)(ethyl)amino)ethoxy)carbonyl)oxy)tridecane-1,13-diyldioleate], in test [1] (setting [3]), the half-maximal inhibitory concentration (IC50) came out at 14 nM. Besides, the “Relative amount of FVII protein (%)” value in test [2] stood at 18%.

Turning to `CCCCCCCCC(CCCCCC)C(=O)OCCCCCCC(CCCCCCOC(=O)C(CCCCCC)CCCCCCCC)OC(=O)OCCN(CC)CCN(CC)CC` (stereo not shown) [Example 56, 7-(((2-((2-(Diethylamino)ethyl)(ethyl)amino)ethoxy)carbonyl)oxy)tridecane-1,13-diylbis(2-hexyldecanoate)], in test [1] (setting [3]), the 50% inhibitory concentration (IC50) was 19 nM. The “Relative amount of FVII protein (%)” value in test [2] is on record as 3%.

(Values after patent US12370143B2, “Compound or salt thereof and lipid particles” (FUJIFILM Corporation, priority 2018, dated 2025).)
